Source: the supplement of paper PMC10790783

System: MRC5-hT fibroblasts expressing HCMV UL38 (glucose-free medium)
Assay: rescue of cell number (AUC of dose-response) relative to untreated glucose-free control; higher = stronger protection from glucose-starvation-induced cell death
Conditions: glucose: 0 (glucose-free DMEM); 96 h; dose range 0.001-20, 10-point curve µM
Procedure: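 MRC5-hT fibroblasts stably expressing HCMV UL38 were seeded in 384-well plates, serum-starved for 24 h, switched to glucose-free DMEM, and pin-transferred with a metabolism-focused compound library as 10-point dose curves (1 nM to 20 µM; n=2). Nuclei were counted by Hoechst imaging 96 h after glucose withdrawal.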

Row | SMILES | rescue of cell number [%]
1 | O=C1CSC(c2ccccc2Cl)c2cc(Cl)ccc2N1 (stereo not drawn) | 3.61
2 | O=C(c1cc(Cc2n[nH]c(=O)c3ccccc23)ccc1F)N1CCN(C(=O)C2CC2)CC1 [Olaparib] | -15.1
3 | Cc1cccc(CN2CCN(C(c3ccccc3)c3ccc(Cl)cc3)CC2)c1 (stereo not drawn) [Meclizine] | 31.4
4 | C[C@H]1[C@H](OC(=O)CCC(=O)O)O[C@@H]2O[C@@]3(C)CC[C@H]4[C@H](C)CC[C@@H]1[C@@]24OO3 [Artesunate] | 9.86
5 | CC[C@]1(O)C[C@H]2CN(CCc3c([nH]c4ccccc34)[C@@](C(=O)OC)(c3cc4c(cc3OC)N(C=O)[C@H]3[C@@](O)(C(=O)OC)[C@H](OC(C)=O)[C@]5(CC)C=CCN6CC[C@]43[C@@H]65)C2)C1 [Vincristine_sulfate] | 29.6
6 | COc1c(O)cc2oc(-c3ccc(O)cc3)cc(=O)c2c1O [Hispidulin] | 145
7 | C/C=C/C/C=C/CCC(=O)[C@H]1O[C@H]1C(N)=O [Cerulenin] | 34.9
8 | NC(=O)c1ncn([C@@H]2O[C@H](CO)[C@@H](O)[C@H]2O)c1N [AICAR] | -30.3
9 | CCC(C)N(C)C(=O)c1cc2ccccc2c(-c2ccccc2Cl)n1 (stereo not drawn) | 15.2
10 | COc1cc(/C=C/C(=O)CC(=O)/C=C/c2ccc(O)c(OC)c2)ccc1O [Curcumin] | 32
11 | O=C(Cc1cccc(OC(F)(F)F)c1)Nc1ccc(CCCCc2nnc(NC(=O)Cc3ccccn3)s2)nn1 [CB-839] | 38.5
12 | CCCCCC[C@H]1C(=O)O[C@H](C)[C@H](NC(=O)c2cccc(NC=O)c2O)C(=O)O[C@@H](C)[C@@H]1OC(=O)CC(C)C [Antimycin_A] | -7.1
13 | OCCN(CCO)c1nc(N2CCCCC2)c2nc(N(CCO)CCO)nc(N3CCCCC3)c2n1 [Dipyridamole] | 141
14 | OC[C@H]1O[C@@H](c2ccc(Cl)c(Cc3ccc(O[C@H]4CCOC4)cc3)c2)[C@H](O)[C@@H](O)[C@@H]1O [Empagliflozin] | 86.7
15 | C[N+](C)(C)CCO.C[N+](C)(C)CCO.[SH-].[SH-].[S]=[Mo]=[S] [ATN-224] | -20.1
16 | Cc1oncc1C(=O)Nc1ccc(C(F)(F)F)cc1 [Leflunomide] | 9.81
17 | COc1cccc2c(NCc3ccccc3)nc(-n3c(N)nc4ccccc43)nc12 [ML240] | 57.1
18 | CCOc1ccc(Cc2cc([C@@H]3O[C@H](CO)[C@@H](O)[C@H](O)[C@H]3O)ccc2Cl)cc1 [Dapagliflozin] | -33.4
19 | CCCCCCCCCCCCCCCCOc1nc2ccc(C)cc2c(=O)o1 [Cetilistat] | -5.21
20 | Nc1ccn([C@H]2CC[C@@H](CO)O2)c(=O)n1 [Zalcitabine] | 9.86
21 | O=C(O)CCCCC(CCSCc1ccccc1)SCc1ccccc1 (stereo not drawn) [CPI-613] | 28.9
22 | CCc1ccc(Cc2ccc3c(c2)[C@]2(OC3)O[C@H](CO)[C@@H](O)[C@H](O)[C@H]2O)cc1 [Tofogliflozin hydrate] | -27.9
23 | Nc1nc2c(c(=O)[nH]1)C[C@@H](CCc1ccc(C(=O)N[C@@H](CCC(=O)O)C(=O)O)cc1)CN2 [Lometrexol] | -30.2
24 | NOCC[C@H](N)C(=O)O [L_Canaline] | 68
25 | Oc1cccnc1NC(c1ccc(Cl)cc1)c1ccc2cccnc2c1O (stereo not drawn) [Adaptaquin] | 33.2
26 | COC(=O)c1ccc([C@H]2c3[nH]c4ccccc4c3C[C@H](C(=O)OC)N2C(=O)CCl)cc1 [1S,3R-RSL3] | 35.2
27 | C=C(C)[C@@H]1CC[C@]2(C(=O)O)CC[C@]3(C)[C@H](CC[C@@H]4[C@@]5(C)CC[C@H](O)C(C)(C)[C@@H]5CC[C@]43C)[C@@H]12 [Betulinic_acid] | 17.8

Row | SMILES | rescue of cell number [%]
28 | O=C(O)C[C@@]1(O)C[C@@H](CCCCCCc2ccc(Cl)cc2Cl)OC1=O | 45.4
29 | NS(=O)(=O)c1cc(C(=O)O)c(NCc2ccco2)cc1Cl [Furosemide] | -15.9
30 | N#Cc1cn([C@@H]2O[C@H](CO)[C@@H](O)[C@H]2O)c2ncnc(N)c12 [Toyocamycin] | 9.71
31 | CN(Cc1ccc(C(C)(C)C)cc1)Cc1cccc2ccccc12 [Butenafine] | 14.4
32 | C/C(O)=C(\C#N)C(=O)Nc1ccc(C(F)(F)F)cc1 [Teriflunomide] | -6.67
33 | O=C(Nc1cccc(C(F)(F)F)c1)Nc1cc(S(=O)(=O)NC2CC2)ccc1-c1ccsc1 [AGI_6780] | -23.4
34 | O=C(O)c1nn(Cc2ccc(Cl)cc2Cl)c2ccccc12 [Lonidamine] | -29
35 | O=C1CCCC(=O)C1C(=O)c1ccc(C(F)(F)F)cc1[N+](=O)[O-] [Nitisinone] | 5
36 | O=C(O)Cc1ccccc1Nc1c(Cl)cccc1Cl [Diclofenac] | -20
37 | Nc1ncnc2c1C(=O)N(c1ccc([C@H]3CC[C@H](CC(=O)O)CC3)cc1)CCO2 | -20.9
38 | Cc1cc2c(C(C)C)c(O)c(O)c(C=O)c2c(O)c1-c1c(C)cc2c(C(C)C)c(O)c(O)c(C=O)c2c1O [Gossypol] | 43.9
39 | OC[C@H]1O[C@@H](c2ccc(F)c(Cc3cc4ccccc4s3)c2)[C@H](O)[C@@H](O)[C@@H]1O [Ipragliflozin] | -33.8
40 | O=C(/C=C/c1cccnc1)NCCCCC1CCN(C(=O)c2ccccc2)CC1 [FK_866] | 26.9
41 | CCCCCCCCCCC[C@@H](C[C@@H]1OC(=O)[C@H]1CCCCCC)OC(=O)[C@H](CC(C)C)NC=O [Orlistat] | -10.4
42 | O[C@H]1[C@H]2[C@H](O)CCCN2C[C@H]1O [Swainsonine] | -31.9
43 | CC1=CC(=O)c2c(O)cccc2C1=O [Plumbagin] | 34.3
44 | Cc1c(O)c(=O)ccn1C [Deferiprone] | 25.4
45 | COP(=O)(CCC(N)C(=O)O)Oc1cccc(CC(=O)O)c1 (stereo not drawn) [GGsTop] | -24
46 | OC[C@H]1O[C@@H](n2cnc3c2N=CNC[C@H]3O)C[C@@H]1O [Pentostatin] | -17.8
47 | CCCCN1C[C@H](O)[C@@H](O)[C@H](O)[C@H]1CO [Miglustat] | 5.72
48 | C=C1C(=O)O[C@H]2[C@H]1CC/C(C)=C/CC[C@@]1(C)O[C@@H]21 [Parthenolide] | 34.9
49 | CN1CCN(C(=O)c2ccc(-c3ccc4c(C=O)c(O)ccc4c3)s2)CC1 [MKC3946] | -14.6
50 | Oc1ncnc2[nH]ncc12 [Allopurinol] | -22.3
51 | C[C@@H]1CC[C@H]2[C@@H](C)C(=O)O[C@@H]3O[C@@]4(C)CC[C@@H]1[C@]32OO4 [Artemisinin] | 15.9
52 | Oc1ccc(/C=C/c2cc(O)cc(O)c2)cc1 [Resveratrol] | -35.9
53 | O=C(Nc1ccccc1)Nc1ccc(-c2ccc(C(=O)[C@@H]3CCC[C@H]3C(=O)O)cc2)cc1 | -36.5
